Reference: patent US20150315218A1, “SALTS OF PRODRUGS OF PIPERAZINE AND SUBSTITUTED PIPERIDINE ANTIVIRAL AGENTS” (Bristol-Myers Squibb Company, priority 2004, published 2015)
Structures can show the parent of a compound that is named as a salt.

Experiments:
[1] = IV and PO pharmacokinetic studies of prodrug salts (Iab, Ibb, Icb) in the rat, with historical parent data; type: in vivo, Sprague-Dawley rats; conditions: for Cmax: read-out: Cmax; for half-life: after IV prodrug, read-out: t1/2 (hr), IV (converted); for clearance: read-out: CLtot (mL/min/kg), IV
Method: (§1) All blood samples (0.3 mL) were colleted in microtainers containing K2EDTA (Becton Dickinson, Franklin Lakes, N.J.) and placed on chipped ice. After centrifugation, plasma was separated and stored at −20° C. until analysis. The mono-lysine salt of Iab (Form 3, Lot 1) was used for the pharmacokinetic studies. The dosing solutions of Iab were prepared in either sterile water (for IV administration in dogs and monkeys) or distilled water (for all other dose administration).
Male Sprague-Dawley rats (300-350 g, Hilltop Lab Animals, Inc., Scottsdale, Pa.) with cannulas implanted in the jugular vein were used. The rats were fasted overnight in the PO pharmacokinetic studies. Blood samples were collected from the jugular vein.
In the IV study, Iab was delivered at 1.4 mg/kg (free acid, or 1.1 mg/kg of IVa equivalent) as a bolus over 0.5 min (n=3).
In the PO study, Iab was administered at 7.9 mg/kg (free acid, or 6.3 mg/kg of IVa equivalent) by oral gavage (n=3). The concentration of the dosing solution was 4.0 mg/mL, and the dosing volume was 2 mL/kg.
The pharmacokinetic parameters of Iab and IVa were calculated by Non-Compartmental Analysis using the […]™ software program (version 4.0.2, InnaPhase Co., Philadelphia, Pa.). The Cmax and Tmax values were recorded directly from experimental observations. The AUC0-n and AUCtot values were calculated using the mixed log-linear trapezoidal summations. The total body clearance (Cl), mean residence time (MRT), and the steady state volume of distribution (Vss) were also calculated after intravenous administration. The absolute oral bioavailability (expressed as %) was estimated by taking the ratio of dose-normalized AUC values after oral doses to those after intravenous doses.
as §1, with “Ibb” for “Iab”, “3)” for “3, Lot 1)”
(§2) The Cmax and Tmax values were recorded directly from experimental observations. The AUC0-n and AUCtot values were calculated using the mixed log-linear trapezoidal summations. The total body clearance (Cl), mean residence time (MRT), and the steady state volume of distribution (Vss) were also calculated after intravenous administration. The absolute oral bioavailability (expressed as %) was estimated by taking the ratio of dose-normalized AUC values after oral doses to those after intravenous doses.
In the IV study, Icb was delivered at 1.4 mg/kg (free acid, or 1.1 mg/kg of IVe equivalent) as a bolus over 0.5 min (n=3).
In the PO study, Icb was administered at 6.9 mg/kg (free acid, or 5.6 mg/kg of IVe equivalent) by oral gavage (n=3).
as §2

[2] = IV and PO pharmacokinetic studies of prodrug salts (Iab, Ibb, Icb) in the monkey, with historical parent data; type: in vivo, cynomolgus monkeys; conditions: for concentration at 24 hr: read-out: C-24 hr; for Cmax: read-out: Cmax; for half-life: after IV prodrug, read-out: t1/2 (hr), IV (converted); for clearance: read-out: CLtot (mL/min/kg), IV
Method: The IV and PO studies of Iab were conducted in a crossover fashion in three male cynomolgus monkeys (11±1.2 kg, Charles River Biomedical Research Foundation, Houston, Tex.). There was a two-week washout period between the IV and PO studies.
In the IV study, Iab was infused via the femoral vein at 1.3 mg/kg (free acid, or 1.1 mg/kg of IVa equivalent) over 5 min at a constant rate of 0.1 mL/kg/min. The concentration of the dosing solution was 2.6 mg/mL, and the dosing volume was 0.5 mL/kg. Serial blood samples were collected from the femoral artery before dosing and at 5, 10, 15, 30, 45 min, 1, 2, 4, 6, 8 and 24 hr after dosing.
In the PO study, the monkeys were fasted overnight before dosing. Iab was administered by oral gavage at 7.1 mg/kg (free acid, or 5.6 mg/kg of IVa equivalent). The concentration of the dosing solution was 14.2 mg/mL, and the dosing volume was 0.5 mL/kg. Serial blood samples were collected before dosing and at 15, 30, 45 min, 1, 2, 4, 6, 8 and 24 hr after dosing.
The IV and PO studies of Ibb were conducted in a crossover fashion in three male cynomolgus monkeys (9.9±2.4 kg, Charles River Biomedical Research Foundation, Houston, Tex.). There was a two-week washout period between the IV and PO studies.
The concentration of the dosing solution was 2.7 mg/mL, and the dosing volume was 0.5 mL/kg. Serial blood samples were collected from the femoral artery before dosing and at 5, 10, 15, 30, 45 min, 1, 2, 4, 6, 8 and 24 hr after dosing.
In the PO study, the monkeys were fasted overnight before dosing. […] The concentration of the dosing solution was 5.8 mg/mL, and the dosing volume was 1 mL/kg. Serial blood samples were collected before dosing and at 15, 30, 45 min, 1, 2, 4, 6, 8 and 24 hr after dosing.
The IV and PO studies of Icb were conducted in a crossover fashion in three male cynomolgus monkeys (10±1.6 kg, Charles River Biomedical Research Foundation, Houston, Tex.). There was a two-week washout period between the IV and PO studies.
The concentration of the dosing solution was 2.8 mg/mL, and the dosing volume was 0.5 mL/kg. Serial blood samples were collected from the femoral artery before dosing and at 5, 10, 15, 30, 45 min, 1, 2, 4, 6, 8 and 24 hr after dosing.
In the PO study, the monkeys were fasted overnight before dosing. […] The concentration of the dosing solution was 9.8 mg/mL, and the dosing volume was 0.5 mL/kg. Serial blood samples were collected before dosing and at 15, 30, 45 min, 1, 2, 4, 6, 8 and 24 hr after dosing.

[3] = male, Sprague-Dawley, plasma, analyte = label
[4] = male, Sprague-Dawley, plasma, prodrug after IV administration
[5] = male, Sprague-Dawley, plasma, prodrug after IV administration, read-out: Vdss (L/kg), IV
[6] = male, cynomolgus monkey, plasma, monkey, analyte = label
[7] = male, cynomolgus monkey, plasma, monkey, prodrug after IV administration
[8] = male, cynomolgus monkey, plasma, monkey, prodrug after IV administration, read-out: Vdss (L/kg), IV

Compound: COc1cnc(-n2cnc(C)n2)c2[nH]cc(C(=O)C(=O)N3CCN(C(=O)c4ccccc4)CC3)c12 [IVc]
- AUCtot ([1]; PO IVc 5 mg/kg, historical IVc): 111 ± 25 µM·h
- bioavailability ([1]; Sprague-Dawley, plasma, historical parent, PO 5 mg/kg, read-out: Bioavailability (%)): 82%
- Tmax ([1]; Sprague-Dawley, plasma, historical parent, PO 5 mg/kg, read-out: Tmax (hr), PO): 4 h
- bioavailability ([1]; male, Sprague-Dawley, plasma, oral prodrug, calculated from historical IV data of parent, read-out: Bioavailability (%) of parent from prodrug): 80%
- bioavailability ([1]; male, Sprague-Dawley, plasma, oral, […], read-out: Bioavailability): 80%
- Tmax ([1]; male, Sprague-Dawley, plasma, parent after oral prodrug (~5-6 mg/kg parent equivalent), read-out: Tmax (hr), PO): 0.8 h
- Tmax ([1]; male, Sprague-Dawley, plasma, po, […], read-out: Tmax): 0.8 ± 0.3 h
- AUC ([1]; plasma, iv, 1 mg/kg, read-out: AUCtot): 27 ± 4 µM·h
- MRT ([1]; plasma, iv, 1 mg/kg, read-out: MRT): 270 ± 46.2 min
- Vd ([1]; plasma, iv, 1 mg/kg, read-out: Vdss): 0.36 ± 0.098 L/kg
- concentration at 24 hr ([1]; plasma, oral, 5 mg/kg, read-out: C-24 hr): 190 ± 48 nM
- bioavailability ([1]; plasma, po, 5 mg/kg, read-out: Bioavailability): 82%
- Cmax ([1]; plasma, po, 5 mg/kg): 13000 ± 3600 nM
- Tmax ([1]; plasma, po, 5 mg/kg, read-out: Tmax): 4 h
- bioavailability ([1]; plasma, po, range over rats, dogs and monkeys, read-out: oral bioavailabilities of parent after administration of prodrug): 80 to 122%
- AUC ([2]; cynomolgus monkey, plasma, iv, 1 mg/kg, read-out: AUCtot): 5 ± 1 µM·h
- MRT ([2]; cynomolgus monkey, plasma, iv, 1 mg/kg, read-out: MRT): 52.2 ± 5.1 min
- Vd ([2]; cynomolgus monkey, plasma, iv, 1 mg/kg, read-out: Vdss): 0.4 ± 0.097 L/kg
- concentration at 24 hr ([2]; cynomolgus monkey, plasma, oral, 5 mg/kg): 17 ± 11 nM
- AUC ([2]; cynomolgus monkey, plasma, po, 5 mg/kg, read-out: AUCtot): 14 ± 4 µM·h
- Cmax ([2]; cynomolgus monkey, plasma, po, 5 mg/kg): 4200 ± 2600 nM
- bioavailability ([2]; cynomolgus monkey, plasma, monkey, historical parent, PO 5 mg/kg, read-out: Bioavailability (%)): 64%
- Tmax ([2]; cynomolgus monkey, plasma, monkey, historical parent, PO 5 mg/kg, read-out: Tmax (hr), PO): 2.3 h
- bioavailability ([2]; male, cynomolgus monkey, plasma, oral, 4.9 mg/kg, read-out: Bioavailability): 122%
- concentration at 24 hr ([2]; male, cynomolgus monkey, plasma, oral, 4.9 mg/kg): 7 ± 2 nM
- AUC ([2]; male, cynomolgus monkey, plasma, po, 4.9 mg/kg, read-out: AUCtot): 24 ± 4.6 µM·h
- Cmax ([2]; male, cynomolgus monkey, plasma, po, 4.9 mg/kg): 9500 ± 1200 nM
- Tmax ([2]; male, cynomolgus monkey, plasma, po, 4.9 mg/kg, read-out: Tmax): 0.92 ± 0.14 h
- bioavailability ([2]; male, cynomolgus monkey, plasma, monkey, oral prodrug, read-out: Bioavailability (%) of parent from prodrug): 122%
- Tmax ([2]; male, cynomolgus monkey, plasma, monkey, parent after oral prodrug (~4-6 mg/kg parent equivalent), read-out: Tmax (hr), PO): 0.92 h
- Tmax ([2]; monkey, PO IVc 5 mg/kg, historical IVc): 2.3 ± 1.5 h

Compound: COc1cnc(OC)c2c1c(C(=O)C(=O)N1CCN(C(=O)c3ccccc3)CC1)cn2COP(=O)(O)O [Iab, {3-[(4-benzoylpiperazin-1-yl)(oxo)acetyl]-4,7-dimethoxy-1H-pyrrolo[2,3-c]pyridin-1-yl}methyl dihydrogen phosphate, L-lysine salt (1:1)]
- AUC ([1]; male, Sprague-Dawley, plasma, after IV prodrug (~1 mg/kg parent equivalent), analyte = label, read-out: AUCtot (μM·hr), IV): 3.3 ± 1 µM·h
- half-life [1, 3]: 0.16 h
- clearance [1, 4]: 14 mL/min/kg
- Vd [1, 5]: 0.12 L/kg
- concentration at 15 min ([2]; male, cynomolgus monkey, plasma, po, monkey, LLQ = 5 nM, read-out: prodrug detected in plasma after oral administration): 18 nM
- AUC ([2]; male, cynomolgus monkey, plasma, monkey, after IV prodrug (~1.1 mg/kg parent equivalent), analyte = label, read-out: AUCtot (μM · hr), IV): 9.5 ± 0.38 µM·h
- half-life [2, 6]: 1 h
- clearance [2, 7]: 4.4 mL/min/kg
- Vd [2, 8]: 0.048 L/kg

Compound: O=C(C(=O)N1CCN(C(=O)c2ccccc2)CC1)c1cn(COP(=O)(O)O)c2c(-n3ccnn3)ncc(F)c12 [Ibb, [3-[(4-benzoylpiperazin-1-yl)(oxo)acetyl]-4-fluoro-7-(1H-1,2,3-triazol-1-yl)-1H-pyrrolo[2,3-c]pyridin-1-yl]methyl dihydrogen phosphate, L-lysine salt (1:1)]
- prodrug detected in plasma after oral administration ([1]; LLQ = 5 nM): < 10 nM
- half-life [1, 3]: 0.18 h
- Cmax ([1]; male, Sprague-Dawley, plasma, po, 6.6 mg/kg): 8 ± 3 nM
- Tmax ([1]; male, Sprague-Dawley, plasma, po, 6.6 mg/kg, read-out: Tmax): 0.25 h
- clearance [1, 4]: 19 mL/min/kg
- Vd [1, 5]: 0.1 L/kg
- half-life [2, 6]: 0.1 h
- clearance [2, 7]: 28 mL/min/kg
- Vd [2, 8]: 0.15 L/kg
- prodrug detected in plasma after oral administration ([2]; monkey, LLQ = 5 nM): not detected

Compound: COc1cnc(-n2cnc(C)n2)c2c1c(C(=O)C(=O)N1CCN(C(=O)c3ccccc3)CC1)cn2COP(=O)(O)O [Icb, [3-[(4-benzoylpiperazin-1-yl)(oxo)acetyl]-4-methoxy-7-(3-methyl-1H-1,2,4-triazol-1-yl)-1H-pyrrolo[2,3-c]pyridin-1-yl]methyl dihydrogen phosphate, 2-amino-2-(hydroxymethyl)propane-1,3-diol salt (1:1)]
- T1/2 ([1]; male, Sprague-Dawley, in vivo, iv, […]): 5.04 ± 0.72 min
- T1/2 ([2]; male, cynomolgus monkey, in vivo, iv, […]): 5.34 ± 1.86 min
